Results: ChEMBL document CHEMBL4311943, “3-[(1S,2S,3R)-2,3-Difluoro-1-hydroxy-7-methylsulfonylindan-4-yl]oxy-5-fluorobenzonitrile (PT2977), a Hypoxia-Inducible Factor 2α (HIF-2α) Inhibitor for the Treatment of Clear Cell Renal Cell Carcinoma” (J Med Chem, 2019)
Active and inactive are the calls of the source. The rule behind the calls is not given here.

How the values were obtained:
[1] = biological target: Calcitonin gene-related peptide type 1 receptor (Homo sapiens) (UniProt Q16602); assay: Activity at human CGRP1 at 10 uM
Chain of Calcitonin gene-related peptide type 1 receptor (Homo sapiens) (Q16602 whole entry, looked up): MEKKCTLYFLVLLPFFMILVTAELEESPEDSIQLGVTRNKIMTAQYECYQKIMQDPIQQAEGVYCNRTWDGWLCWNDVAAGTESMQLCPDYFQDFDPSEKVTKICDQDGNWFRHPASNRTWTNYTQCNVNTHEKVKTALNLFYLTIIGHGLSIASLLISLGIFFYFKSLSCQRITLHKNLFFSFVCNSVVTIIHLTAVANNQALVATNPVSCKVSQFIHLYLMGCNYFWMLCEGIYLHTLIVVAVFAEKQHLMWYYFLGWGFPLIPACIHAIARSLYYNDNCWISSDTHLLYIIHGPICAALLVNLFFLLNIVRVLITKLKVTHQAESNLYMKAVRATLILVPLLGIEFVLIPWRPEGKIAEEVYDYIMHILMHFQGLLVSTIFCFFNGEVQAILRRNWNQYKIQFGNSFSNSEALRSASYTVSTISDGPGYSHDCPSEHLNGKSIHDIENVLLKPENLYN

[2] = biological target: Alpha-1A adrenergic receptor (Homo sapiens) (UniProt P35348); assay: Activity at human alpha1A receptor at 10 uM
[3] = biological target: Cyclin-dependent kinase 5/CDK5 activator 1 (Homo sapiens) (UniProt Q00535+Q15078); assay: Activity at human CDK5/p35 at 10 uM; format: protein-complex assay
[4] = biological target: Platelet-activating factor receptor (Homo sapiens) (UniProt P25105); assay: Activity at human PAF receptor at 10 uM
Chain of Platelet-activating factor receptor (Homo sapiens) (P25105 whole entry): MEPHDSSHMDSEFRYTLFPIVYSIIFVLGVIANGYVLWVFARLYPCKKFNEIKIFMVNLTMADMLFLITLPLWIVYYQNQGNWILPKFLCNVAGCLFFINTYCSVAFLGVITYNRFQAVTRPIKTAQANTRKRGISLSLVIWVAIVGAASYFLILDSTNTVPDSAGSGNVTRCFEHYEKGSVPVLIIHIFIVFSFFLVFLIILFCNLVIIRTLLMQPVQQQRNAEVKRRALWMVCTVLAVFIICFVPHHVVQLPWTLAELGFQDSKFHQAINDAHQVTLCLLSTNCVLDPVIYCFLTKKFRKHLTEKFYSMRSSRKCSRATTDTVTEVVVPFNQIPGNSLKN

[5] = biological target: Endothelin receptor type B (Homo sapiens) (UniProt P24530); assay: Activity at human ETB receptor at 10 uM
[6] = organism: Homo sapiens; assay: Activity at human BB2 receptor at 10 uM
[7] = Drug level in plasma of SCID Beige mouse xenografted with human 786-O cells at 1 mg/kg, po administered twice daily via gavage for 3 days measured 12 hrs post-last dose; format: ADME, organism-based
[8] = biological target: Gastrin/cholecystokinin type B receptor (Homo sapiens) (UniProt P32239); assay: Activity at human CCK2 receptor at 10 uM
Chain of Gastrin/cholecystokinin type B receptor (Homo sapiens) (P32239 whole entry): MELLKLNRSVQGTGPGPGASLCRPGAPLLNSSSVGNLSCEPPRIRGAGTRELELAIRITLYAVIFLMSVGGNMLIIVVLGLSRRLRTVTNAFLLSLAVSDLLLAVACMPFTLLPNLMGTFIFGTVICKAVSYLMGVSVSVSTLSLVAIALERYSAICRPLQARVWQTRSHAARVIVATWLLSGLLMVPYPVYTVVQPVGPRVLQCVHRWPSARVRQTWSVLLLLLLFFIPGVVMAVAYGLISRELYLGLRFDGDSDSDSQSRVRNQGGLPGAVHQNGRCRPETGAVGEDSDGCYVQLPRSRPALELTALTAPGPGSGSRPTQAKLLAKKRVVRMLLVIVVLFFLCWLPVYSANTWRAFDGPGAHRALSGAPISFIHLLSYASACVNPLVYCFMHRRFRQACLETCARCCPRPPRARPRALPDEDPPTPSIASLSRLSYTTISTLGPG

[9] = Half life in patient with advanced solid tumor at 240 mg, po administered once daily measured on day 15; format: ADME, organism-based; settings: human, in vivo
[10] = biological target: Cysteinyl leukotriene receptor 1 (Homo sapiens) (UniProt Q9Y271); assay: Activity at human CysLT1 receptor at 10 uM
[11] = biological target: Kappa-type opioid receptor (Homo sapiens) (UniProt P41145); assay: Activity at human kappa opioid receptor at 10 uM
[12] = biological target: Voltage-gated L-type calcium channel (Homo sapiens, UniProt Q13936+Q13698+Q01668+O60840); assay: Activity at human L-type calcium channel at 10 uM; format: protein assay
[13] = Protein binding in mouse plasma at 10 uM measured after 4 hrs by LC-MS/MS analysis; format: ADME, cell-free; settings: read-out: PPB (converted)
[14] = Protein binding in human plasma at 10 uM measured after 4 hrs by LC-MS/MS analysis; format: ADME, cell-free; settings: read-out: PPB (converted)
[15] = biological target: Prostaglandin E2 receptor EP3 subtype (Homo sapiens) (UniProt P43115); assay: Activity at human Prostanoid EP3 receptor at 10 uM
[16] = Volume of distribution at steady state in Sprague-Dawley rat at 1 mg/kg, iv by UPLC-MS analysis; format: ADME, organism-based; settings: in vivo, read-out: Vdss
[17] = biological target: Hydroxycarboxylic acid receptor 2 (Homo sapiens) (UniProt Q8TDS4); assay: Activity at human GPR109A receptor at 10 uM
[18] = biological target: Mitogen-activated protein kinase 14 (Homo sapiens) (UniProt Q16539); assay: Activity at human SAPK2a at 10 uM
[19] = Cmax in patient with advanced solid tumor at 40 mg, po administered once daily measured on day 15; format: ADME, organism-based; parameters: dose 40 mg, route oral; settings: human, in vivo
[20] = biological target: Protein kinase C delta type (Homo sapiens) (UniProt Q05655); assay: Activity at human PKCdelta at 10 uM
Chain of Protein kinase C delta type (Homo sapiens) (Q05655 whole entry, looked up): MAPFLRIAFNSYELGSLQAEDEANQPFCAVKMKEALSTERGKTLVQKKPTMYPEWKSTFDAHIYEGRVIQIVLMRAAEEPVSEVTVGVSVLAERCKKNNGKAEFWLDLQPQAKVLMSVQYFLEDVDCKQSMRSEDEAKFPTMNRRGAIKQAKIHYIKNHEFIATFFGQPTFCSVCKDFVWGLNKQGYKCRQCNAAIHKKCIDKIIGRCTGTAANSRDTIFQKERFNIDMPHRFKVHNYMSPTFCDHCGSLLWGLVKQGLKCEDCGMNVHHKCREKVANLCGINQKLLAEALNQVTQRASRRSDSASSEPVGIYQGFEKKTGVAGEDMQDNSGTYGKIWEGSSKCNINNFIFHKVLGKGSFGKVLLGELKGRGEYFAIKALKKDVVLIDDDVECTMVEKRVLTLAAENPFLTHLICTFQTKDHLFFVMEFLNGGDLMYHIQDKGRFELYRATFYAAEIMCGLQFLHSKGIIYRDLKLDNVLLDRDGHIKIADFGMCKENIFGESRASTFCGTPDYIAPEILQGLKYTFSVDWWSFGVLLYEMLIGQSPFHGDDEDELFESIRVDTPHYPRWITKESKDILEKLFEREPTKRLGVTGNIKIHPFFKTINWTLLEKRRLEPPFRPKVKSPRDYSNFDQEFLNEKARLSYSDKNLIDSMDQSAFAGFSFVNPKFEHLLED

[21] = biological target: Type-1 angiotensin II receptor (Homo sapiens) (UniProt P30556); assay: Activity at human AT1 receptor at 10 uM
Chain of Type-1 angiotensin II receptor (Homo sapiens) (P30556 whole entry): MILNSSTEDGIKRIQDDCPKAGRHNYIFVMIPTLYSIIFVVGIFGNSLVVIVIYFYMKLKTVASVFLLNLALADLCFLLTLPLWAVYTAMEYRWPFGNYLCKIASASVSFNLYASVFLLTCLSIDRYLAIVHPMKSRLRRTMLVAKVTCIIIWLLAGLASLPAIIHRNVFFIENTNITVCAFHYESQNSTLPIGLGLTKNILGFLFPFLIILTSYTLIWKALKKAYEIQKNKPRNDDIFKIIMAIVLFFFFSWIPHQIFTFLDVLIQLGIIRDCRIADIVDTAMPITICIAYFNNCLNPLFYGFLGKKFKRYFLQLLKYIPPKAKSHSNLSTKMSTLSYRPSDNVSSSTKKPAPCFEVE

[22] = biological target: Vasoactive intestinal polypeptide receptor 2 (Homo sapiens) (UniProt P41587); assay: Activity at human VPAC2 at 10 uM
[23] = system: Mus musculus; assay: In vivo inhibition of HIF-2alpha in SCID Beige mouse xenografted with human 786-O cells assessed as reduction in cyclin D1 mRNA expression administered twice daily via oral gavage for 3 days measured 12 hrs post-last dose by qRT-PCR analysis; format: functional, organism-based
[24] = Half life in monkey at 1 mg/kg, iv by UPLC-MS analysis; format: ADME, organism-based, Macaca mulatta; settings: rhesus monkey, in vivo
[25] = Clearance in CD-1 mouse at 3 mg/kg, iv by UPLC-MS analysis; format: ADME, organism-based; settings: in vivo
[26] = Clearance in monkey at 1 mg/kg, iv by UPLC-MS analysis; format: ADME, organism-based, Macaca mulatta; settings: rhesus monkey, in vivo
[27] = biological target: Vasopressin V1a receptor (Homo sapiens) (UniProt P37288); assay: Activity at human V1A receptor at 10 uM
Chain of Vasopressin V1a receptor (Homo sapiens) (P37288 whole entry, looked up): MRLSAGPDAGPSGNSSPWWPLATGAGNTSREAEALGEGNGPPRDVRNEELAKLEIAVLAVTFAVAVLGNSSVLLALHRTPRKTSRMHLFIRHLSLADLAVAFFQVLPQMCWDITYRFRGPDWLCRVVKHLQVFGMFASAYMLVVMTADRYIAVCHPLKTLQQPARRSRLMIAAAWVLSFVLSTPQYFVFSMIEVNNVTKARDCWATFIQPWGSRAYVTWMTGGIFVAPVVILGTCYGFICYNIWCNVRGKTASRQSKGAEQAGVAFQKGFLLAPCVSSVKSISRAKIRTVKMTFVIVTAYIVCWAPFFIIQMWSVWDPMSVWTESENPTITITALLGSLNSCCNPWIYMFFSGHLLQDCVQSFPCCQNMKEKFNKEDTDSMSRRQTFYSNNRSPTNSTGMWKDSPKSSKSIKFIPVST

[28] = Half life in CD-1 mouse at 3 mg/kg, iv by UPLC-MS analysis; format: ADME, organism-based; settings: in vivo
[29] = biological target: RAC-beta serine/threonine-protein kinase (Homo sapiens) (UniProt P31751); assay: Activity at human PKBbeta at 10 uM
[30] = biological target: Muscarinic acetylcholine receptor M1 (Homo sapiens) (UniProt P11229); assay: Activity at human M1 receptor at 10 uM
Chain of Muscarinic acetylcholine receptor M1 (Homo sapiens) (P11229 whole entry): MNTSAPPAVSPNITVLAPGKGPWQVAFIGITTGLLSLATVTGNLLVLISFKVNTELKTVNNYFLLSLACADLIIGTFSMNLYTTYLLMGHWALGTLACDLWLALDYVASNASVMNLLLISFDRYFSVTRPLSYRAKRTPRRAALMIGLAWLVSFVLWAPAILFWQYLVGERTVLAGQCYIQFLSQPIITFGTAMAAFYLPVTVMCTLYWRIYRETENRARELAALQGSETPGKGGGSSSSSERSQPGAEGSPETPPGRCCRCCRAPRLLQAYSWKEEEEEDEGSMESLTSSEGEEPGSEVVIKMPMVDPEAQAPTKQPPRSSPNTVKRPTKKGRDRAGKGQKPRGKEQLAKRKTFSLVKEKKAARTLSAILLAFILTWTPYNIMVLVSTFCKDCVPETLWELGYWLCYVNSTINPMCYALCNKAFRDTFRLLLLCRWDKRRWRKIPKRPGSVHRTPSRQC

[31] = biological target: C-X-C chemokine receptor type 1 (Homo sapiens) (UniProt P25024); assay: Activity at human CXCR1 receptor at 10 uM
[32] = biological target: Delta-type opioid receptor (Homo sapiens) (UniProt P41143); assay: Activity at human delta opioid receptor at 10 uM
[33] = biological target: D(2) dopamine receptor (Homo sapiens) (UniProt P14416); assay: Activity at human D2L receptor at 10 uM
[34] = biological target: C-C chemokine receptor type 2 (Homo sapiens) (UniProt P41597); assay: Activity at human CCR2B receptor at 10 uM
Chain of C-C chemokine receptor type 2 (Homo sapiens) (P41597 whole entry, looked up): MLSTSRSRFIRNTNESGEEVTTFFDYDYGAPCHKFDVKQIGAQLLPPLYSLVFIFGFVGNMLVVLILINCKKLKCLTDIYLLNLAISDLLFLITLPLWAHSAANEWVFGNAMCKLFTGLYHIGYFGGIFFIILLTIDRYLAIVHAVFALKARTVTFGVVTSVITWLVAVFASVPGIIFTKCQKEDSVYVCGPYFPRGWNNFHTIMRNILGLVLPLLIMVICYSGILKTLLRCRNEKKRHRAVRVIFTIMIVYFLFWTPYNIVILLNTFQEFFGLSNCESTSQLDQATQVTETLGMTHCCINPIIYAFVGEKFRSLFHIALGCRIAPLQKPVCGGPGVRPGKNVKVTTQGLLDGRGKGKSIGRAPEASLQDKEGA

[35] = biological target: Beta-1 adrenergic receptor (Homo sapiens) (UniProt P08588); assay: Activity at human beta1 receptor at 10 uM
[36] = biological target: Endothelin-1 receptor (Homo sapiens) (UniProt P25101); assay: Activity at human ETA receptor at 10 uM
[37] = Dose normalized AUClast in CD-1 mouse at 10 mg/kg, po administered via gavage by UPLC-MS analysis; format: ADME, organism-based; settings: in vivo
[38] = biological target: Insulin receptor (Homo sapiens) (UniProt P06213); assay: Activity at human IR at 10 uM
[39] = biological target: Histamine H1 receptor (Homo sapiens) (UniProt P35367); assay: Activity at human H1 receptor at 10 uM
Chain of Histamine H1 receptor (Homo sapiens) (P35367 whole entry): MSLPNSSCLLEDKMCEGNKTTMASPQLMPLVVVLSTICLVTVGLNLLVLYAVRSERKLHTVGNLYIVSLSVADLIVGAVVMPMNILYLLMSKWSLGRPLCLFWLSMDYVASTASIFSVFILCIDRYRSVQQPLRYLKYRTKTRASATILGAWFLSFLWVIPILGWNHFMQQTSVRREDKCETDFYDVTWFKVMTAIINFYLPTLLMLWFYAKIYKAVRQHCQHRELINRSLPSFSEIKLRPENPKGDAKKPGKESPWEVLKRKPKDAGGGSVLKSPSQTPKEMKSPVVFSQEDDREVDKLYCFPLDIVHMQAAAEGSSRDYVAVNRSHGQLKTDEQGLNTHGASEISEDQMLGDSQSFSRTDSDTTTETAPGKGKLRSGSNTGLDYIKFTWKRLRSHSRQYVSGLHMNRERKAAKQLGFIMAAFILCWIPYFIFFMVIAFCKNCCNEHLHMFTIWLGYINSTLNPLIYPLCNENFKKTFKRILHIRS

[40] = biological target: Inward rectifier potassium channel 2 (Homo sapiens, UniProt P63252); assay: Activity at human Kir2.1 at 10 uM
Chain of Inward rectifier potassium channel 2 (P63252 whole entry): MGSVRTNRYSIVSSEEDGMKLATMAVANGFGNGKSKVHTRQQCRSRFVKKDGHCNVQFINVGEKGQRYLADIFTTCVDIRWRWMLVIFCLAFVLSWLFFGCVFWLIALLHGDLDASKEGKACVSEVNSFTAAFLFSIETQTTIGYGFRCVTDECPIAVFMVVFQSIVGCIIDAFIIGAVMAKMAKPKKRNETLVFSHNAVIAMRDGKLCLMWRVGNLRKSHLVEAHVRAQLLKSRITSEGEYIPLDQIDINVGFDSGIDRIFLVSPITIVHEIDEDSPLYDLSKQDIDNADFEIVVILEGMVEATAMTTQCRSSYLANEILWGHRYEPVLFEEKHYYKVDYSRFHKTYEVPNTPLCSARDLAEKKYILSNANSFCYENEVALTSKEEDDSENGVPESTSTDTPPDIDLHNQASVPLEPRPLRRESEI

[41] = biological target: Neurotensin receptor type 1 (Homo sapiens) (UniProt P30989); assay: Activity at human NTR1 receptor at 10 uM
Chain of Neurotensin receptor type 1 (Homo sapiens) (P30989 whole entry): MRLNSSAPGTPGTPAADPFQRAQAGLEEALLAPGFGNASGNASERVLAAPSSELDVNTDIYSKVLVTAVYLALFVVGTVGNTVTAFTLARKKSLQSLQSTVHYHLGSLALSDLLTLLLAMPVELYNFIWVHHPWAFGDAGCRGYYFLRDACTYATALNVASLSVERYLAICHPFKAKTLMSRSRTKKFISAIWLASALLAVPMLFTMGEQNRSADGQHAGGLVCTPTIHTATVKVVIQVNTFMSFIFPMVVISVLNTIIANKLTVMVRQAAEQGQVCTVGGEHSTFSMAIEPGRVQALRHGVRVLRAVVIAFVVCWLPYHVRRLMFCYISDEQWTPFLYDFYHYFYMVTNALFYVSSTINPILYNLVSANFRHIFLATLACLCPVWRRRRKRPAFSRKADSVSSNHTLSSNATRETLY

[42] = biological target: fMet-Leu-Phe receptor (Homo sapiens) (UniProt P21462); assay: Activity at human FPR1 receptor at 10 uM
[43] = Drug level in plasma of SCID Beige mouse xenografted with human 786-O cells at 0.3 mg/kg, po administered twice daily via gavage for 3 days measured 12 hrs post-last dose; format: ADME, organism-based
[44] = biological target: 5-hydroxytryptamine receptor 1A (Homo sapiens) (UniProt P08908); assay: Activity at human 5-HT1A receptor at 10 uM
[45] = biological target: Protein kinase C epsilon type (Homo sapiens) (UniProt Q02156); assay: Activity at human PKCepsilon at 10 uM
[46] = AUClast in patient with advanced solid tumor at 80 mg, po administered once daily measured on day 15; format: ADME, organism-based; parameters: dose 80 mg, route oral, time 0 - last; settings: human, in vivo
[47] = biological target: Orexin/Hypocretin receptor type 1 (Homo sapiens) (UniProt O43613); assay: Activity at human OX1 receptor at 10 uM

Compound: CS(=O)(=O)c1ccc(Oc2cc(F)cc(C#N)c2)c2c1[C@H](O)[C@H](F)[C@@H]2F [BELZUTIFAN]
- Activity [1]: inactive
- Activity [2]: inactive
- Activity [3]: inactive
- Activity [4]: inactive
- Activity [5]: inactive
- Activity [6]: inactive
- concentration at 12 h [7]: 27 ng/mL
- Activity [8]: inactive
- half-life [9]: 14.1 h
- Activity [10]: inactive
- Activity [11]: inactive
- Activity [12]: Not Active
- fraction unbound at 4 h, 10 µM [13]: 0.44
- fraction unbound at 4 h, 10 µM [14]: 0.48
- Activity [15]: inactive
- Vd [16]: 1.6 L/kg
- Activity [17]: inactive
- Activity [18]: inactive
- Cmax [19]: 500 ng/mL
- Activity [20]: inactive
- Activity [21]: inactive
- Activity [22]: inactive
- inhibition [23]: Dose-dependent effect
- half-life [24]: 9.2 h
- clearance [25]: 21 mL/min/kg
- clearance [26]: 3.5 mL/min/kg
- Activity [27]: inactive
- half-life [28]: 4 h
- Activity [29]: inactive
- Activity [30]: inactive
- Activity [31]: inactive
- Activity [32]: inactive
- Activity [33]: inactive
- Activity [34]: inactive
- Activity [35]: inactive
- Activity [36]: inactive
- AUClast/dose [37]: 37 µM·h
- Activity [38]: inactive
- Activity [39]: inactive
- Activity [40]: Not Active
- Activity [41]: inactive
- Activity [42]: inactive
- concentration at 12 h [43]: < 19 ng/mL
- Activity [44]: inactive
- Activity [45]: inactive
- AUC(0-t) [46]: 17500 ng·h/mL
- Activity [47]: inactive
